# Measured values taken from patent publication US20080234232A1, “Methods and compositions for targeting AFAP” (priority 2007, published 2008).
# Columns and labels:
# PH domain of DAPP1 = molecular target: T1, PH domain of DAPP1 (Homo sapiens, UniProt Q9UN19); experiment: Lipid binding assay (Far Western), GST-DAPP1; conditions: 0.5 μg/ml fusion protein
# T1 construct: GST-fusion proteins that expressed the PH domain of DAPP1 as a positive control; made in house; host or cells: bacteria (plasmid provided by Mark Lemmon)
# T1 sequence (Q9UN19 164-259 limits assumed): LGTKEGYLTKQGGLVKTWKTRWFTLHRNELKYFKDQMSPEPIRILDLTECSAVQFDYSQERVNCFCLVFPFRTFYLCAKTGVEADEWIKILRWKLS
# Description: (§1) FIG. 5: The phospholipid binding properties of the PH domains of AFAP-110. A) Pleckstrin homology fusion proteins, GST-PH1, GST-PH2 and GST-DAPP1, were purified from bacteria by affinity chromatography. Phospholipids were spotted onto PVDF membranes as described in the methods section. The membranes were incubated overnight with 0.5 μg/ml • GST-PH1, GST-PH2 or GST-DAPP1. Washed membranes were incubated with anti-GST antibody and exposed to film.
# C) Fusion protein, GST-DAPP1, was purified from bacteria by affinity chromatography. Two-fold changes in concentration (1.6 pg-100.0 pg) of phospholipids were spotted onto PVDF membranes as described in the methods section. Membranes were incubated with 0.5 μg/ml fusion proteins. Washed membranes were probed using with anti-GST antibody.
# Pleckstrin homology (PH) fusion proteins GST-PH1, GST-PH2 and GST-DAPP1, were purified from bacteria by affinity chromatography. A Far Western Blot procedure was used for detecting the fusion protein binding to nitrocellulose immobilized phospholipids (Stevenson, J. Met. al., 1998); PIP strips and PIP arrays were purchased from Echelon, Inc. Overlay assays measured the relative amounts of GST-tagged fusion protein bound to spotted phospholipids. […]
# PH1 domain of AFAP-110 [1] = molecular target: T2, PH1 domain of AFAP-110 (Gallus gallus, UniProt Q90738); experiment: Lipid binding assay (Far Western), GST-PH1; conditions: 0.5 μg/ml fusion protein, lipids spotted on membrane
# T2 construct: AFAP-110 contains two PH domains, one amino terminal (PH1) and the other carboxy terminal (PH2); made in house; host or cells: bacteria
# Description: as §1
# B) Pleckstrin homology fusion protein, GST-PH1, was purified from bacteria by affinity chromatography. Two-fold changes in concentration (1.6 pg-100.0 pg) of phospholipids were spotted onto PVDF membranes as described in the methods section. The PIP arrays were incubated with 0.5 μg/ml fusion protein and probed with anti-GST antibody.
# Pleckstrin homology (PH) fusion proteins GST-PH1, GST-PH2 and GST-DAPP1, were purified from bacteria by affinity chromatography. A Far Western Blot procedure was used for detecting the fusion protein binding to nitrocellulose immobilized phospholipids (Stevenson, J. Met. al., 1998); PIP strips and PIP arrays were purchased from Echelon, Inc. Overlay assays measured the relative amounts of GST-tagged fusion protein bound to spotted phospholipids. A plasmid encoding GST-DAPP1 previously shown to bind Ptdlns-3,4-P2 and Ptdlns-3,4,5-P3 (Dowler, S. et. al., 1999) was used as a control, kindly provided by Mark Lemmon (Lemmon, M. A., 2003). The membranes were wetted with methanol and then transferred to blocking solution composed of 3% BSA in TBS containing 1% Tween-20 (TBS-T) for 1 hour at 4° C. Membranes were incubated with 0.5 μg/ml each fusion proteins in TBS-T overnight at 4° C. Following incubation, membranes were rinsed three times with TBS-T, washed for 5 minutes and incubated at 4° C. for 1 hour with anti-GST antibody (1:20000 in TBS-T). Following the standard wash procedure, membranes were incubated at 4° C. for 30 minutes with peroxidase-conjugated secondary antibody (1:30000 in TBS-T). The washed membranes were incubated with chemiluminescence reagent and exposed to X-ray film.
# PH1 domain of AFAP-110 [2] = molecular target: T2, PH1 domain of AFAP-110; experiment: Lipid sedimentation assay, GST-PH1; assay type: binding; conditions: PC vesicles with lipid 19:1 (PC:PS 7:3), 0.025 mM GST fusion protein
# Description: E) Lipid sedimentation assay was performed using pleckstrin homology fusion protein GST-PH1 as described in the methods sections. The GST-PH1 fusion protein has the capacity to co-sediment with several lipids containing vesicles as indicated in the pellet (P). Soluble fractions (S) containing unbound GST-PH1 purified fusion proteins were resolved by SDS-PAGE and detected by Coomassie stain.
# A sedimentation assay was used to detect PH domain protein association with membrane phospholipids. Phospholipid stock solutions: 1 mg/ml L-α-Ptdlns-4-P, 1.0 mg/ml 1,2-dipalmitoyl-sn-glycero-3-Ptdlns-3-P, 0.1 mg/ml 1,2-dioleoyl-sn-glycero-3-Ptdlns-3,4-P2, and 1 mg/ml L-α-Ptdlns-4,5-P2 in chloroform:methanol:water (60:30:4). However, 10 mg/ml L-α-phosphatidylinositol, 0.1 mg/ml L-α Ptdlns-3-P, 0.2 mg/ml L-α-Ptdlns-3,4,5-P3, 10 mg/ml L-α-phosphatidylserine, and 10 mg/ml L-α-phosphatidylcholine in chloroform neat. All lipid stocks were purged with dry N2 and stored −20° C. The lipid vesicles were prepared as follows utilizing a sonication method. Briefly, in a heavy walled tube, PC and another stock phospholipid (e.g. Ptdlns, Ptdlns-3-P, Ptdlns-4-P, Ptdlns-3,4-P2, Ptdlns-3,5-P2, Ptdlns-3,4,5-P3, or PC) were combined in a 19:1 molar ratio; PC and PS were combined in a 7:3 molar ratio. Lipids were dried with a stream of N2 and traces of solvent were removed by vacuum and resuspended to 5.2 mM PC in buffer B [10 mM HEPES, pH 7.5, 50 mM KCl, 0.5 mM EGTA, and 1.0 mM MgCl2]. The resulting phospholipid sheets were sonicated to form vesicles. Samples were prepared to contain 1.7 mM vesicle PC and 0.025 mM recombinant GST fusion protein (DAPP1 or PH1) in buffer B. Samples were incubated 60 min and centrifuged with a Beckman Airfuge for 15 min at room temperature. 16% of the supernatant and 100% of the pellet from each sample was used for analysis by Laemmli method of SDS polyacrylamide gel electrophoresis. The gels were stained with SYPRO Orange or Coomassie Blue to visualize the proteins.
# T2 sequence (Q90738 153-249 limits assumed): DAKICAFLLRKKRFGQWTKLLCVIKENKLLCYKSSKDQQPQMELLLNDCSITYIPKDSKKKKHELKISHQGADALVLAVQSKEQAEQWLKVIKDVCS
substance,measurement,setting,value
"Phosphoinositol-3,4,5-trisphosphate [Ptdlns-3,4,5-P3]",binding of GST-DAPP1 to immobilized phospholipid (far western),PH domain of DAPP1,binds well
same,binding of GST-PH1 to immobilized phospholipid (far western),PH1 domain of AFAP-110 [1],binding the weakest
same,binding (co-sedimentation) of GST-PH1 to lipid vesicles containing the lipid,PH1 domain of AFAP-110 [2],low
